Results: patent US5112740A, “Carbon dioxide assay for body fluids comprising carbonic anhydrase” (Eastman Kodak Company, priority 1989, dated 1992)

Legend:
carbonic anhydrase [1] = assay: Carbonic anhydrase inhibitors tested against hemolysate bias on the enzymatic CO2 slide (Example 3); format: biochemical, human; details: for Enzymatic Bicarbonate With Hemolysate: hemoglobin 200 mg/dL, 1 hour room temperature; for Bias: with vs without hemolysate (hemoglobin 200 mg/dL)
Experimental: (§1) A stock hemolysate solution was prepared by collecting fresh blood from suitable human donors. The erythrocytes of the blood was pooled, and then washed with saline four times. The erythrocytes were then lysed by five cycles of freezing to -70° C. and thawing at 37° C. The resulting hemolysate was filtered through Whatman No. 1 (Whatman Ltd. UK) filter paper. Hemoglobin concentration in mg/dL was determined by the method of Harboe described in Sca. J. Clinical Lab. Invest. […] The concentration of hemoglobin is directly related to the level of carbonic anhydrase in the hemolysate stock solution.
The enzymatic values for CO2 were determined on the test samples with dry-chemistry slides on an […] Clinical Chemistry Analyzer (available from Eastman Kodak Company, Rochester, N.Y.). The principle of the assay is as represented above by reaction series (1) and (5). […] It had the following format:
A stock solution of 50 mmol/L bicarbonate was prepared in 100 mmol/L tricine buffer (pH 8.0).

carbonic anhydrase [2] = details: solution assay
carbonic anhydrase [3] = tested on: carbonic anhydrase
Experimental: Reference values for CO2 (Table I) on test samples were determined using a thermal conductivity procedure on the Corning 965 carbon dioxide analyzer. The technology of the reference procedure is such that it is not affected by carbonic anhydrase.
The enzymatic values for CO2 were determined on the test samples with dry-chemistry slides on an [sequence] Clinical Chemistry Analyzer (available from Eastman Kodak Company, Rochester, N.Y.). The principle of the assay is as represented above by reaction series (1) and (5). […] It had the following format:
A stock solution of 50 mmol/L bicarbonate was prepared in 100 mmol/L tricine buffer (pH 8.0). The stock bicarbonate was diluted with either (a) the buffer or (b) the stock hemolysate and the buffer to give test solutions of about 25 mmol/L HCO3^- and varying concentrations of hemoglobin.

carbonic anhydrase [4] = details: acetazolamide included in the enzymatic CO2 dry chemistry element
Experimental: as §1

[5] = final inhibitor concentration 20.0 mmol/L
[6] = final inhibitor concentration 1.0 mmol/L
[7] = final inhibitor concentration 2.5 mmol/L
[8] = final inhibitor concentration 5.0 mmol/L
[9] = final inhibitor concentration 2.0 mmol/L

## CC(N)C(=O)O (racemic) [DL-Alanine]
Carbonic anhydrase [1]; [5]
  Enzymatic Bicarbonate With Hemolysate: 14.3 mmol/L
  Bias: -8.6 mmol/L

## CC(=O)Nc1nnc(S(N)(=O)=O)s1 [Acetazolamide]
Carbonic anhydrase [2]
  Minimum concentration effective as an inhibitor: at least 0.1 mmol/L
Carbonic anhydrase [1]; among the carbonic anhydrase inhibitors tested
  Effectiveness in eliminating the negative bias of the enzymatic CO2 assay: most effective
Carbonic anhydrase [1]; [6]
  Enzymatic Bicarbonate With Hemolysate: 22.9 mmol/L
  Bias: -0.3 mmol/L
Carbonic anhydrase [3]; acetazolamide included in the enzymatic CO2 dry chemistry element
  Effect on bias seen with freshly prepared hemolysates: significantly reduces the bias
Carbonic anhydrase [3]; reagent layer compared with spreading layer
  Effectiveness when included in the reagent layer: equally as effective
Carbonic anhydrase [4]
  Effect on bias seen with hemolyzed and apparently non-hemolysed patient samples: effectively eliminates the bias

## [N-]=[N+]=[N-] [Azide]
Carbonic anhydrase [1]; [7]
  Enzymatic Bicarbonate With Hemolysate: 16.5 mmol/L
  Bias: -6.8 mmol/L

## O[C@H](CS)[C@@H](O)CS [Dithioerythritol]
Carbonic anhydrase [1]; [8]
  Enzymatic Bicarbonate With Hemolysate: 17.5 mmol/L
  Bias: -5.8 mmol/L

## O=C(O)CN(CCN(CC(=O)O)CC(=O)O)CC(=O)O [EDTA, Ethylenediaminetetraacetic acid]
Carbonic anhydrase [1]; [8]
  Enzymatic Bicarbonate With Hemolysate: 14.7 mmol/L
  Bias: -8.1 mmol/L

## NCC(=O)O [Glycine]
Carbonic anhydrase [1]; [5]
  Enzymatic Bicarbonate With Hemolysate: 14.3 mmol/L
  Bias: -8.1 mmol/L

## O=C(O)CN(CCO)CCN(CC(=O)O)CC(=O)O [HEDTA, NHydroxyethylethylenediaminetriacetic acid]
Carbonic anhydrase [1]; [8]
  Enzymatic Bicarbonate With Hemolysate: 15.7 mmol/L
  Bias: -7.6 mmol/L

## Nc1ccc(S(N)(=O)=O)cc1 [Sulfanilamide]
Carbonic anhydrase [1]; [9]
  Enzymatic Bicarbonate With Hemolysate: 14.9 mmol/L
  Bias: -7.9 mmol/L

## Nc1ccc(S(=O)(=O)Nc2nccs2)cc1 [Sulfathiazole]
Carbonic anhydrase [1]; [9]
  Enzymatic Bicarbonate With Hemolysate: 15.8 mmol/L
  Bias: -8.4 mmol/L

## N#CS [Thiocyanate]
Carbonic anhydrase [1]; [7]
  Enzymatic Bicarbonate With Hemolysate: 15.3 mmol/L
  Bias: -6.7 mmol/L
